According to patent EP1000062B1, “TRICYCLIC VASOPRESSIN AGONISTS” (Wyeth, priority 1997, dated 1999):

Tests used:
Type in all cases: in vivo
Vasopressin V2 [1] = test: Vasopressin V2 agonist effects of test compounds in normal conscious water-loaded rats; conditions: Sprague-Dawley (CD) rats, oral 1 mg/kg, urine collected for four hours; for Osmolality (% Increase): change in osmolality as percent of control; for Urine Volume (% decrease): vs. control
Vasopressin V2 [2] = test: Vasopressin V2 agonist effects of test compounds in normal conscious homozygous Brattleboro rats with central diabetes insipidus; conditions: Brattleboro (BB) rats, oral 10 mg/kg, urine collected for six hours; for Osmolality (% Increase): change in osmolality as percent of control; for Urine Volume (% decrease): vs. control
From the text: Vasopressin V2 Agonist Effects of Test Compounds in Normal Conscious Homozygous Brattleboro Rats with Central Diabetes Insipidus
Male or female homozygous Brattleboro rats (Harlan Sprague Dawley, Inc., Indianapolis, IN) of 250-350 g body weight were supplied with standard rodent diet (Purina Rodent Lab. Chow 5001) and water ad libitum. On the day of test, rats were placed individually into metabolic cages equipped with devices to separate the feces from the urine and containers for collection of urine. Test compound or reference agent was given at an oral dose of 1 to 10 mg/kg in a volume of 10 ml /kg. The vehicle used was 20% dimethylsulfoxide (DMSO) in 2.5% preboiled corn starch. During the test, rats were provided with water ad libitum. Urine was collected for six hours after dosing of the test compound. At the end of six hours, urine volume was measured. Urinary osmolality was determined using a Fiske One-Ten Osmometer (Fiske Associates, Norwood, MA, 02062) or an Advanced CRYOMATIC Osmometer, Model 3C2 (Advanced Instruments, Norwood, MA). Determinations of Na^+, K^+ and Cl^- ion were carried out using ion specific electrodes in a Beckman SYNCHRON EL-ISE Electrolyte System analyzer. This animal model was mainly used for evaluation of potency and duration of action of the active compounds.

Vasopressin V2 [3] = test: Vasopressin V2 agonist effects of test compounds in normal conscious water-loaded rats; conditions: Sprague-Dawley (CD) rats, oral 10 mg/kg, urine collected for four hours; for Osmolality (% Increase): change in osmolality as percent of control; for Urine Volume (% decrease): vs. control
Method: Vasopressin V2 Agonist Effects of Test Compounds in Normal Conscious Water-Loaded Rats:
On the day of test, rats were placed individually into metabolic cages equipped with devices to separate the feces from the urine and containers for collection of urine. Test compound or reference agent was given at an oral dose of 10 mg/kg in a volume of 10 ml /kg. […] Thirty minutes after dosing the test compound, rats were gavaged with water at 30 ml /kg into the stomach using a feeding needle. During the test, rats were not provided with water or food. Urine was collected for four hours after dosing of the test compound. At the end of four hours, urine volume was measured. […] Determinations of Na^+, K^+ and Cl^- ion were carried out using ion specific electrodes in a Beckman SYNCHRON EL-ISE Electrolyte System analyzer. […] In the screening test, two rats were used for each compound. If the difference in the urine volume of the two rats was greater than 50%, a third rat was used.

Row | Molecule | Osmolality (% Increase) (Vasopressin V2 [3]) [%] | Urine Volume (% decrease) (Vasopressin V2 [3]) [%] | other results
1 | Cc1ccn(-c2ccc(C(=O)N3Cc4cccn4Cc4ccccc43)c(C(F)(F)F)c2)n1 [Example 2, [4-(3-Methyl-pyrazol-1-yl)-2-trifluoromethyl-phenyl](5H,11H-pyrrolo[2,1-c]-[1,4]benzadiazepin-10-yl)-methanone] |  |  | Osmolality (% Increase) (Vasopressin V2 [1]): 306% (1 mg/kg); Urine Volume (% decrease) (Vasopressin V2 [1]): 80% (1 mg/kg)
2 | Cc1ccn(-c2ncc(C(=O)N3Cc4cccn4Cc4ccccc43)c(C(F)(F)F)n2)n1 [Example 20, [2-(3-Methyl-pyrazol-1-yl)-4-trifluoromethyl-pyrimidin-5-yl]-(5H,11H-pyrrolo[2,1-c][1,4]benzodiazepin-10-yl)-methanone] |  |  | Osmolality (% Increase) (Vasopressin V2 [1]): 152% (1 mg/kg); Urine Volume (% decrease) (Vasopressin V2 [1]): 25% (1 mg/kg)
3 | CC(=O)n1ccc(-c2ccc(C(=O)N3Cc4cccn4Cc4ccccc43)cc2)n1 [Example 30, 1-{3-[4-(5H,11H-Pyrrolo[2,1-c][1,4]benzodiazepine-10-carbonyl)-phenyl]-pyrazol-1-yl}-ethanone] |  |  | Osmolality (% Increase) (Vasopressin V2 [2]): 334%; Urine Volume (% decrease) (Vasopressin V2 [2]): 81%
4 | O=C(c1ccc(-c2ccn(C(=O)c3cccs3)n2)cc1)N1Cc2cccn2Cc2ccccc21 [Example 34, (5H,11H-Pyrrolo[2,1-c][1,4]benzodiazepin-10-yl)-{4-[1-(thiophene-2-carbonyl)-1H-pyrazoly-3-yl]phenyl}-methanone] |  |  | Osmolality (% Increase) (Vasopressin V2 [2]): 407%; Urine Volume (% decrease) (Vasopressin V2 [2]): 76%
5 | Cc1ccccc1C(=O)n1ccc(-c2ccc(C(=O)N3Cc4cccn4Cc4ccccc43)cc2)n1 [Example 36, {4-[1-(2-Methyl-benzoyl)-1H-pyrazol-3-yl]-phenyl}-(5H,11H-pyrrolo[2,1-c][1,4]benzodiazepin-10-yl)-methanone] |  |  | Osmolality (% Increase) (Vasopressin V2 [2]): 164%; Urine Volume (% decrease) (Vasopressin V2 [2]): 66%
6 | O=C(c1ccc(-c2ccn(C(=O)c3ccc(Cl)cc3Cl)n2)cc1)N1Cc2cccn2Cc2ccccc21 [Example 38, {4-[1-(2,4-Dichloro-benzoyl)-1H-pyrazol-3-yl]-phenyl}-(5H,11H-pyrrolo[2,1-c][1,4]benzodiazepin-10-yl)-methanone] |  |  | Osmolality (% Increase) (Vasopressin V2 [2]): 256%; Urine Volume (% decrease) (Vasopressin V2 [2]): 66%
7 | Cn1ncnc1-c1ccc(C(=O)N2Cc3cccn3Cc3ccccc32)cc1 [Example 49, [4-(2-Methyl-2H-[1,2,4]triazol-3-yl)-phenyl]-(5H,11H-pyrrolo[2,1-c][1,4]-benzodiazepin-10-yl)-methanone] |  |  | Osmolality (% Increase) (Vasopressin V2 [2]): 221%; Urine Volume (% decrease) (Vasopressin V2 [2]): 74%
8 | Cc1ccn(-c2ccc(C(=O)N3Cc4ccnn4Cc4ccccc43)c(C(F)(F)F)c2)n1 [Example 95, [4-(3-Methylpyrazol-1-yl)-2-trifluoromethylphenyl]-[5H,11H-pyrazolo[5,1-c]-[1,4]benzodiazepin-10-yl)-methanone] | 300 | 68 | 
9 | Cc1ccn(-c2ccc(C(=O)O)c(Cl)c2)n1 [Example 97, 2-Chloro-4-(3-methyl-1H-pyrazol-1-yl)-benzoic acid] | 106 | 3 | 
10 | O=C(c1ccc(-n2cccn2)nc1Cl)N1Cc2cccn2Cc2ccccc21 [Example 99, (2-Chloro-6-pyrazol-1-yl-pyridin-3-yl)-(5H,11H-pyrrolo[2,1-c][1,4]benzodiazepin-10-yl)-methanone] | 205 | 43 | 
11 | Cc1ccn(-c2ccc(C(=O)N3Cc4cccn4Cc4ccccc43)c(Cl)n2)n1 [Example 100, [2-Chloro-6-(3-methylpyrazol-1-yl)-pyridin-3-yl]-(5H,11H-pyrrolo[2,1-c] [1,4]benzodiazepin-10-yl)-methanone] | 248 | 24 | 
12 | Cc1cnn(-c2ccc(C(=O)N3Cc4cccn4Cc4ccccc43)c(Cl)n2)c1 [Example 101, [2-Chloro-6-(4-methylpyrazol-1-yl)-pyridin-3-yl](5H,11H-pyrrolo[2,1-c] [1,4]benzodiazepin-10-yl)-methanone] | 376 | 76 | 
13 | COc1cc(-n2ccc(C)n2)ccc1C(=O)N1Cc2cccn2Cc2ccccc21 [Example 107, [2-Methoxy-4-(3-methyl-pyrazol-1-yl)-phenyl](5H,11H-pyrrolo[2,1-c][1,4]-benzodiazepin-10-yl) methanone] | 125 | 31 | 
14 | COc1cc(-n2ccc(C)n2)ccc1C(=O)N1Cc2ccc(CN(C)C)n2Cc2ccccc21 [Example 108, (3-Dimethylaminomethyl-5H,11H-pyrrolo[2,1-c][1,4]benzodiazepin-10-yl)[2-methoxy-4-(3-methyl-pyrazol-1-yl)-phenyl]-methanone] | 145 | 30 | 
15 | Cc1ccn(-c2ccc(C(=O)N3Cc4cccn4Cc4ccccc43)c(O)c2)n1 [Example 109] | 95 | 21 | 
16 | Cn1cc(-c2ccc(C(=O)N3Cc4cccn4Cc4ccccc43)c(Cl)c2)cn1 [Example 115, [2-Chloro-4-(1-methyl-1H-pyrazol-4-yl)phenyl) (5H,11H-pyrrolo[2,1-c][1,4]-benzodiazepin-10-yl)-methanone] | 229 | 66 | 
17 | Cc1ccn(-c2ccc(C(=O)N3Cc4ccnn4Cc4ccccc43)c(Cl)c2)n1 [Example 116, [2-Chloro-4-(3-methyl-pyrazol-1-yl)-phenyl]-(4H,10H-pyrazolo[5,1-c][1,4]-benzodiazepin-5-yl)-methanone] | 256 | 66 | 
18 | Cc1ccn(-c2ccc(C(=O)N3Cc4nnnn4Cc4ccccc43)c(Cl)c2)n1 [Example 117] | 311 | 68 | 
19 | Cn1ccc(-c2ccc(C(=O)N3Cc4ccnn4Cc4ccccc43)cc2)n1 [Example 120A, [4-(1-Methyl-1H-pyrazol-3-yl)phenyl](4H,10H-pyrazolo[5,1c][1,4]-benzodiazepin-5-yl) methanone] | 269 | 66 | 
20 | Cn1nccc1-c1ccc(C(=O)N2Cc3ccnn3Cc3ccccc32)cc1 [Example 120B, [4-(2-Methyl-1H-pyrazol-3-yl)phenyl](4H,10H-pyrazolo[5,1c][1,4]-benzodiazepin-5-yl) methanone] | 272 | 67 | 
21 | CC(=O)c1ccc(C(=O)N2Cc3cccn3Cc3ccccc32)c(Cl)c1 [Example 121, 1-[4-(5H,11H-pyrrolo[2,1-c][1,4]benzodiazepine-10-carbonyl)-3-chlorophenyl]-ethanone] | 155 | 22 | 
22 | [2-Chloro-4-(3-methyl-4-ethynyl-phenyl) (5H,11H-pyrrolo[2,1-c][1,4]-benzodiazepin-10-yl)-methanone [Example 123] | 663 | 88 | 
